# Laboratory results: patent publication US9334264B2, “NAMPT inhibitors” (AbbVie Inc., priority 2012, dated 2016)
# Assays:
# [1] = biological target: NAMPT (human, recombinant, C-terminally His-tagged) (Homo sapiens, UniProt P43490); test: Time-Resolved Fluorescence Resonance Energy Transfer (TR-FRET) Binding Assay of NAMPT; details: absence of substrates; 6.8 nM NAMPT, 200 nM probe, equilibrated 3 hours
# Experimental: Determination of the utility of compounds having Formula (I) as binders to and inhibitors of NAMPT was performed using Time-Resolved Fluorescence Resonance Energy Transfer (TR-FRET) binding assays.
# Time-Resolved Fluorescence Resonance Energy Transfer (TR-FRET) Binding Assay of NAMPT
# Test compounds were serially diluted (typically 11 half log dilutions) in neat DMSO to 50× final concentrations prior to dilution with assay buffer (50 mM HEPES (NaOH), pH 7.5, 100 mM NaCl, 10 mM MgCl2, 1 mM DTT, 1% Glycerol) to 3× and 6% DMSO. Six μL were transferred to 384-well low-volume plates (Owens Corning #3673). To this, 12 μL of a 1.5× solution containing enzyme, probe and antibody were added. Final concentrations in the 18 μL reactions were 1× assay buffer, 2% DMSO, 6.8 nM NAMPT (human, recombinant, C-terminally His-tagged), 200 nM probe (a potent nicotinamide-competitive inhibitor conjugated to Oregon Green 488) and 1 nM Tb-anti-His antibody (Invitrogen #PV5895). Reactions were equilibrated at room temperature for 3 hours prior to reading on an Envision multi-label plate reader (Perkin Elmer; Ex=337 nm, Em=520 and 495 nm). Time-resolved FRET ratios (Em520/Em495) were normalized to controls, plotted as a function of compound concentration and fit with the four-parameter logistic equation to determine IC50s.
# [2] = biological target: NAMPT (Homo sapiens, UniProt P43490); test: Time-Resolved Fluorescence Resonance Energy Transfer (TR-FRET) Binding Assay of NAMPT with PRPP; details: 200 μM PRPP and 2.5 mM ATP; 2 nM NAMPT, 2 nM probe, equilibrated 16 hours
# Experimental: Time-Resolved Fluorescence Resonance Energy Transfer (TR-FRET) Binding Assay of NAMPT with PRPP
# Compound handling and data processing were identical to the assay in the absence of substrates (above). Final concentrations were 1× assay buffer, 2% DMSO, 2 nM NAMPT, 2 nM probe, 1 nM Tb-anti-His antibody (Invitrogen #PV5895), 200 μM PRPP and 2.5 mM ATP. Reactions were equilibrated for 16 hours prior to measurement to allow for potential enzymatic modification of test compounds.
# Sequence of NAMPT (human, recombinant, C-terminally His-tagged) (P43490 whole entry): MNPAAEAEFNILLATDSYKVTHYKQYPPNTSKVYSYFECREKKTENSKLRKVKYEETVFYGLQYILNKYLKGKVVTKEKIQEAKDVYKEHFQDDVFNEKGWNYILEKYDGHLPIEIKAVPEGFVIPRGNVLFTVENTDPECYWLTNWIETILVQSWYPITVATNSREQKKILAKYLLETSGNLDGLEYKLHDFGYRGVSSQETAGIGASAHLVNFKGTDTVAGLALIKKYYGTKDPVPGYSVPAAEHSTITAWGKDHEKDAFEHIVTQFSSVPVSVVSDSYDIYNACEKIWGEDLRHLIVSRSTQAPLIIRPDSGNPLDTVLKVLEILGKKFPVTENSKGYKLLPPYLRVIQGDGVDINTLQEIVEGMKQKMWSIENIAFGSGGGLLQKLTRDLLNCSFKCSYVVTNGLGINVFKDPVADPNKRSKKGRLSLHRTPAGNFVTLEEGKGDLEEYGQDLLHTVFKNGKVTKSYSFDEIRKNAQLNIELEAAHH
# Sequence of NAMPT (P43490 whole entry): as above
smiles,measurement,setting,value
"CNC(=O)CCN(C(=O)CCOC)c1ncc(C(=O)NCCCn2ccnc2)s1 [Example 200, N-[3-(1H-imidazol-1-yl)propyl]-2-{(3-methoxypropanoyl)[3-(methylamino)-3-oxopropyl]amino}-1,3-thiazole-5-carboxamide]",IC50,[1],> 10000 nM
same,IC50,[2],0.747 nM
"CCN(CC)CCNC(=O)N(Cc1ccc(C#N)cc1)c1ncc(C(=O)NCCCn2ccnc2)s1 [Example 146, 2-[(4-cyanobenzyl){[2-(diethylamino)ethyl]carbamoyl}amino]-N-[3-(1H-imidazol-1-yl)propyl]-1,3-thiazole-5-carboxamide]",IC50,[1],> 10000 nM
same,IC50,[2],98 nM
"CC(C)NC(=O)N(Cc1ccc(F)cc1)c1ncc(C(=O)NCCCn2ccnc2)s1 [Example 46, 2-[(4-fluorobenzyl)(propan-2-ylcarbamoyl)amino]-N-[3-(1H-imidazol-1-yl)propyl]-1,3-thiazole-5-carboxamide]",IC50,[1],9520 nM
same,IC50,[2],2.2 nM
"Cc1nccn1CCCNC(=O)c1cnc(N(Cc2ccc(F)cc2)C(=O)CC(C)C)s1 [Example 53, 2-[(4-fluorobenzyl)(3-methylbutanoyl)amino]-N-[3-(2-methyl-1H-imidazol-1-yl)propyl]-1,3-thiazole-5-carboxamide]",IC50,[1],2530 nM
same,IC50,[2],320 nM
"CC(C)N1CCN(CC(=O)N(Cc2ccc(F)cc2)c2ncc(C(=O)NCCCn3ccnc3)s2)CC1 [Example 31, 2-[(4-fluorobenzyl){[4-(propan-2-yl)piperazin-1-yl]acetyl}amino]-N-[3-(1H-imidazol-1-yl)propyl]-1,3-thiazole-5-carboxamide]",IC50,[1],3600 nM
same,IC50,[2],0.893 nM
"CC(O)CNC(=O)N(Cc1ccc(C#N)cc1)c1ncc(C(=O)NCCCn2ccnc2)s1 (stereo not drawn) [Example 128, 2-{(4-cyanobenzyl)[(2-hydroxypropyl)carbamoyl]amino}-N-[3-(1H-imidazol-1-yl)propyl]-1,3-thiazole-5-carboxamide]",IC50,[1],> 10000 nM
same,IC50,[2],0.727 nM
"O=C(NCCCn1ccnc1)c1cnc(N(Cc2ccc(F)cc2)C(=O)NC2CCCOC2)s1 (stereo not drawn) [Example 92, 2-[(4-fluorobenzyl)(tetrahydro-2H-pyran-3-ylcarbamoyl)amino]-N-[3-(1H-imidazol-1-yl)propyl]-1,3-thiazole-5-carboxamide]",IC50,[1],> 10000 nM
same,IC50,[2],0.868 nM
"COCCC(=O)N(Cc1ccc(F)cc1)c1ncc(C(=O)NCCCn2ccnc2)s1 [Example 25, 2-[(4-fluorobenzyl)(3-methoxypropanoyl)amino]-N-[3-(1H-imidazol-1-yl)propyl]-1,3-thiazole-5-carboxamide]",IC50,[1],1630 nM
same,IC50,[2],1.4 nM
"COCCN(C(=O)Cc1ccc2ccccc2c1)c1ncc(C(=O)NCCCn2ccnc2)s1 [Example 185, N-[3-(1H-imidazol-1-yl)propyl]-2-[(2-methoxyethyl)(naphthalen-2-ylacetyl)amino]-1,3-thiazole-5-carboxamide]",IC50,[1],633 nM
same,IC50,[2],0.476 nM
"CC(C)CNC(=O)N(Cc1ccc(F)cc1)c1ncc(C(=O)NCCCn2ccnc2)s1 [Example 64, 2-{(4-fluorobenzyl)[(2-methylpropyl)carbamoyl]amino}-N-[3-(1H-imidazol-1-yl)propyl]-1,3-thiazole-5-carboxamide]",IC50,[1],1850 nM
same,IC50,[2],2.97 nM
"O=C(NCCCn1ccnc1)c1cnc(N(Cc2ccc(F)cc2)C(=O)c2cccc(Cl)c2)s1 [Example 12, 2-[(3-chlorobenzoyl)(4-fluorobenzyl)amino]-N-[3-(1H-imidazol-1-yl)propyl]-1,3-thiazole-5-carboxamide]",IC50,[1],303 nM
same,IC50,[2],0.241 nM
"COCCCN(C(=O)CCOC)c1ncc(C(=O)NCCCn2ccnc2)s1 [Example 176, N-[3-(1H-imidazol-1-yl)propyl]-2-[(3-methoxypropanoyl)(3-methoxypropyl)amino]-1,3-thiazole-5-carboxamide]",IC50,[1],7360 nM
same,IC50,[2],0.365 nM
"CC(C)CCN(Cc1ccccc1F)c1ncc(C(=O)NCCCn2ccnc2)s1 [Example 55, 2-[(2-fluorobenzyl)(3-methylbutyl)amino]-N-[3-(1H-imidazol-1-yl)propyl]-1,3-thiazole-5-carboxamide]",IC50,[1],> 10000 nM
same,IC50,[2],3180 nM
"COCCC(=O)N(Cc1ccc(Cl)cc1)c1ncc(C(=O)NCCCn2ccnc2)s1 [Example 114, 2-[(4-chlorobenzyl)(3-methoxypropanoyl)amino]-N-[3-(1H-imidazol-1-yl)propyl]-1,3-thiazole-5-carboxamide]",IC50,[1],1990 nM
same,IC50,[2],2.31 nM
"COCCN(C)C(=O)N(Cc1ccc(F)cc1)c1ncc(C(=O)NCCCn2ccnc2)s1 [Example 69, 2-{(4-fluorobenzyl)[(2-methoxyethyl)(methyl)carbamoyl]amino}-N-[3-(1H-imidazol-1-yl)propyl]-1,3-thiazole-5-carboxamide]",IC50,[1],> 10000 nM
same,IC50,[2],3.98 nM
"CCN(CC)CCCNC(=O)N(Cc1ccc(C#N)cc1)c1ncc(C(=O)NCCCn2ccnc2)s1 [Example 144, 2-[(4-cyanobenzyl){[3-(diethylamino)propyl]carbamoyl}amino]-N-[3-(1H-imidazol-1-yl)propyl]-1,3-thiazole-5-carboxamide]",IC50,[1],> 10000 nM
same,IC50,[2],33.2 nM
"CC(C)CCNC(=O)N(Cc1ccc(F)cc1)c1ncc(C(=O)NCCCn2ccnc2)s1 [Example 63, 2-{(4-fluorobenzyl)[(3-methylbutyl)carbamoyl]amino}-N-[3-(1H-imidazol-1-yl)propyl]-1,3-thiazole-5-carboxamide]",IC50,[1],2250 nM
same,IC50,[2],0.693 nM
"N#Cc1ccc(CCN(C(=O)CC2CCOCC2)c2ncc(C(=O)NCCCn3ccnc3)s2)cc1 [Example 49, 2-{[2-(4-cyanophenyl)ethyl](tetrahydro-2H-pyran-4-ylacetyl)amino}-N-[3-(1H-imidazol-1-yl)propyl]-1,3-thiazole-5-carboxamide]",IC50,[1],1690 nM
same,IC50,[2],1.07 nM
"O=C(NCCCn1ccnc1)c1cnc(N(Cc2ccc(F)cc2)C(=O)CN2CCC3(C2)OCCO3)s1 [Example 43, 2-[(1,4-dioxa-7-azaspiro[4.4]non-7-ylacetyl)(4-fluorobenzyl)amino]-N-[3-(1H-imidazol-1-yl)propyl]-1,3-thiazole-5-carboxamide]",IC50,[1],8110 nM
same,IC50,[2],0.709 nM
"CN(Cc1ccc(-c2cccnc2)cc1)c1ncc(C(=O)NCCCn2ccnc2)s1 [Example 2, N-[3-(1H-imidazol-1-yl)propyl]-2-{methyl[4-(pyridin-3-yl)benzyl]amino}-1,3-thiazole-5-carboxamide]",IC50,[1],7560 nM
same,IC50,[2],4.29 nM
"CN(C)C(=O)CCNC(=O)N(Cc1ccc(C#N)cc1)c1ncc(C(=O)NCCCn2ccnc2)s1 [Example 142, 2-[(4-cyanobenzyl){[3-(dimethylamino)-3-oxopropyl]carbamoyl}amino]-N-[3-(1H-imidazol-1-yl)propyl]-1,3-thiazole-5-carboxamide]",IC50,[1],6040 nM
same,IC50,[2],16.9 nM
"COCCC(=O)N(CCc1ccc2c(c1)OCO2)c1ncc(C(=O)NCCCn2ccnc2)s1 [Example 102, 2-{[2-(1,3-benzodioxol-5-yl)ethyl](3-methoxypropanoyl)amino}-N-[3-(1H-imidazol-1-yl)propyl]-1,3-thiazole-5-carboxamide acetate (1:1)]",IC50,[1],306 nM
same,IC50,[2],2.16 nM
"C=CCN1CCN(CC(=O)N(Cc2ccc(F)cc2)c2ncc(C(=O)NCCCn3ccnc3)s2)CC1 [Example 37, 2-[(4-fluorobenzyl){[4-(prop-2-en-1-yl)piperazin-1-yl]acetyl}amino]-N-[3-(1H-imidazol-1-yl)propyl]-1,3-thiazole-5-carboxamide]",IC50,[1],4810 nM
same,IC50,[2],0.531 nM
"O=C(NCCCn1ccnc1)c1cnc(N(Cc2ccc(F)cc2)C(=O)c2ccc(F)cc2)s1 [Example 13, 2-[(4-fluorobenzoyl)(4-fluorobenzyl)amino]-N-[3-(1H-imidazol-1-yl)propyl]-1,3-thiazole-5-carboxamide]",IC50,[1],1750 nM
same,IC50,[2],0.403 nM
"COCCN(C(=O)Cc1ccc(N)cc1)c1ncc(C(=O)NCCCn2ccnc2)s1 [Example 188, 2-{[(4-aminophenyl)acetyl](2-methoxyethyl)amino}-N-[3-(1H-imidazol-1-yl)propyl]-1,3-thiazole-5-carboxamide]",IC50,[1],356 nM
same,IC50,[2],0.195 nM
"CC(C)(CO)CNC(=O)N(Cc1ccc(C#N)cc1)c1ncc(C(=O)NCCCn2ccnc2)s1 [Example 127, 2-{(4-cyanobenzyl)[(3-hydroxy-2,2-dimethylpropyl)carbamoyl]amino}-N-[3-(1H-imidazol-1-yl)propyl]-1,3-thiazole-5-carboxamide]",IC50,[1],3180 nM
same,IC50,[2],0.533 nM
"COCCC(=O)N(CCc1ccccc1F)c1ncc(C(=O)NCCCn2ccnc2)s1 [Example 108, 2-{[2-(2-fluorophenyl)ethyl](3-methoxypropanoyl)amino}-N-[3-(1H-imidazol-1-yl)propyl]-1,3-thiazole-5-carboxamide acetate (1:1)]",IC50,[1],1450 nM
same,IC50,[2],1.61 nM
